# Measurements as given in patent publication US20260265329A1, “POLYPEPTIDE AND DERIVATIVE THEREOF, COMPOSITION, AND USE THEREOF” (HANGZHOU SCIWIND BIOSCIENCES CO., LTD., priority 2023, published 2026).
# Starred links: 1 amine or outer side, 2 acyl side, 3 side chain; linkers in the order of their positions; H or OH if unused. Non-standard residues stand in square brackets, D forms with d. Residues, ends and D or L forms follow the SMILES beside them. *: point of attachment. C20 diacid = O=C(O)CCCCCCCCCCCCCCCCCCC(=O)*; γGlu = O=C(O)[C@H](CCC(=O)[*:2])N[*:1]; βAsp = O=C(O)[C@H](CC(=O)[*:2])N[*:1]; Hyp = O=C(O)[C@@H]1C[C@@H](O)CN1
# B1: M26 (peptide)
# peptide: {C20 diacid}-EASQLSTAATQRLADFLRHSSNNLKPILPPTNVGSNT[Hyp]-NH2
# SMILES: CC[C@H](C)[C@H](NC(=O)[C@@H]1CCCN1C(=O)[C@H](CCCCN)NC(=O)[C@H](CC(C)C)NC(=O)[C@H](CC(N)=O)NC(=O)[C@H](CC(N)=O)NC(=O)[C@H](CO)NC(=O)[C@H](CO)NC(=O)[C@H](Cc1c[nH]cn1)NC(=O)[C@H](CCCNC(=N)N)NC(=O)[C@H](CC(C)C)NC(=O)[C@H](Cc1ccccc1)NC(=O)[C@H](CC(=O)O)NC(=O)[C@H](C)NC(=O)[C@H](CC(C)C)NC(=O)[C@H](CCCNC(=N)N)NC(=O)[C@H](CCC(N)=O)NC(=O)[C@@H](NC(=O)[C@H](C)NC(=O)[C@H](C)NC(=O)[C@@H](NC(=O)[C@H](CO)NC(=O)[C@H](CC(C)C)NC(=O)[C@H](CCC(N)=O)NC(=O)[C@H](CO)NC(=O)[C@H](C)NC(=O)[C@H](CCC(=O)O)NC(=O)CCCCCCCCCCCCCCCCCCC(=O)O)[C@@H](C)O)[C@@H](C)O)C(=O)N[C@@H](CC(C)C)C(=O)N1CCC[C@H]1C(=O)N1CCC[C@H]1C(=O)N[C@H](C(=O)N[C@@H](CC(N)=O)C(=O)N[C@H](C(=O)NCC(=O)N[C@@H](CO)C(=O)N[C@@H](CC(N)=O)C(=O)N[C@H](C(=O)N1C[C@H](O)C[C@H]1C(N)=O)[C@@H](C)O)C(C)C)[C@@H](C)O
# B2: M27 (peptide)
# peptide: {C20 diacid-βAsp}-ASQLSTAATQRLADFLRHSSNNLKPILPPTNVGSNT[Hyp]-NH2
# SMILES: CC[C@H](C)[C@H](NC(=O)[C@@H]1CCCN1C(=O)[C@H](CCCCN)NC(=O)[C@H](CC(C)C)NC(=O)[C@H](CC(N)=O)NC(=O)[C@H](CC(N)=O)NC(=O)[C@H](CO)NC(=O)[C@H](CO)NC(=O)[C@H](Cc1c[nH]cn1)NC(=O)[C@H](CCCNC(=N)N)NC(=O)[C@H](CC(C)C)NC(=O)[C@H](Cc1ccccc1)NC(=O)[C@H](CC(=O)O)NC(=O)[C@H](C)NC(=O)[C@H](CC(C)C)NC(=O)[C@H](CCCNC(=N)N)NC(=O)[C@H](CCC(N)=O)NC(=O)[C@@H](NC(=O)[C@H](C)NC(=O)[C@H](C)NC(=O)[C@@H](NC(=O)[C@H](CO)NC(=O)[C@H](CC(C)C)NC(=O)[C@H](CCC(N)=O)NC(=O)[C@H](CO)NC(=O)[C@H](C)NC(=O)C[C@H](NC(=O)CCCCCCCCCCCCCCCCCCC(=O)O)C(=O)O)[C@@H](C)O)[C@@H](C)O)C(=O)N[C@@H](CC(C)C)C(=O)N1CCC[C@H]1C(=O)N1CCC[C@H]1C(=O)N[C@H](C(=O)N[C@@H](CC(N)=O)C(=O)N[C@H](C(=O)NCC(=O)N[C@@H](CO)C(=O)N[C@@H](CC(N)=O)C(=O)N[C@H](C(=O)N1C[C@H](O)C[C@H]1C(N)=O)[C@@H](C)O)C(C)C)[C@@H](C)O
# Legend:
# [1] = biological target: T1, human amylin receptors (Homo sapiens, UniProt O60896+P30988); test: Luciferase assay in stably transfected amylin receptor/CRE-luc CHO cell line; type: cell-based; conditions: for Relative activity: EC50 ratio of Cagrilintide to the compound, Cagrilintide 100%; for EC50: amylin receptor/CRE-luc CHO cells, 24 hours incubation, luminescence
# T1 construct: host or cells: CHO-K1/Ga15/AMY3 cells, further stably transfected with a CRE-luciferase plasmid
# T1 sequence (P30988 25-474): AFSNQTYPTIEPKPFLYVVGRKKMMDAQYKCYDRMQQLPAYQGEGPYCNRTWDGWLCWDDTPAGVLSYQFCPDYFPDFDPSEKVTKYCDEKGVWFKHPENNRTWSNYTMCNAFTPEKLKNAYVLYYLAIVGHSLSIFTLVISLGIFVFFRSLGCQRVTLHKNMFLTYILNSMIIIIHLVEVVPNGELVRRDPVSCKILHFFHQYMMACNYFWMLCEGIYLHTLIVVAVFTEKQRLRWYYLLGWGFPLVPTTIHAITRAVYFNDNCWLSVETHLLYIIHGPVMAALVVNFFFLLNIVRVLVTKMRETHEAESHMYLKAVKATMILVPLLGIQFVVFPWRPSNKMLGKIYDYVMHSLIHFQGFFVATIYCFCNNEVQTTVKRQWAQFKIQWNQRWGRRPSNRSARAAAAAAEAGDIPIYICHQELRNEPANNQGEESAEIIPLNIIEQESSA
# T1 sequence (O60896 24-148 partner): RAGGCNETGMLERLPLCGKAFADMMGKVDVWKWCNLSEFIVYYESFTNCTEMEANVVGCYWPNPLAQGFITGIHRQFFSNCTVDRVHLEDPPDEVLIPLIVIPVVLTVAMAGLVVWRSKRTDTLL
# [2] = Heat accelerated stability assay, 40° C., detection on 7 d and 28 d; type: physicochemical; conditions: for Purity from the reversed phase chromatography-214 nm, 0 d / Purity from the reversed phase chromatography-214 nm, 7 d / Purity from the reversed phase chromatography-214 nm, 28 d: 1 mg/mL, pH about 7.4, 40° C.; for Change (7 d − 0 d): purity on 7 d − purity on 0 d; for Change (7 d − 0 d) / Change (28 d − 0 d): 40° C., pH about 7.4; for Change (28 d − 0 d): purity on 28 d − purity on 0 d
# Protocol: The derivatives (1 mg/mL) were mixed with sodium dihydrogen phosphate (1.42 mg/mL) and dissolved in ultrapure water. After adjusting pH to about 7.4 with hydrochloric acid/sodium hydroxide, the solution was filtered into a sterilized vial in a clean bench using a 0.22 μm sterile filter. The vial was then capped and placed into the stability test chamber at 40° C. Detections were made on Days 7 (7d) and 28 (28d), and during the assay, changes in the characteristics and properties of the polypeptides were observed and recorded. The sample was then centrifuged for 3 min at 10000 rpm at 4° C., and the supernatant was transferred to a liquid phase sample vial for detecting the concentration and purity of the polypeptides using liquid phase chromatography described as below.
# Conditions of the reversed phase chromatography Flow rate: 1.0 mL/min; Autosampler temperature: 15° C.; Column temperature: 25° C.; Detection wavelength: 214 nm; Mobile phase A: 100% H2O+0.05% TFA; Mobile phase B: 100% ACN; and Gradient of elution listed in Table 4: […]
# [3] = biological target: T2, human amylin receptor on CHO-K1/Ga15/AMY3 cells (amylin receptor/CRE-luc cell line) (human) (UniProt P30988); test: cell-based or functional assay
# T2 sequence (looked up) 1: T1 sequence (P30988 25-474)
# T2 sequence (looked up) 2: T1 sequence (O60896 24-148 partner)
Molecule,Relative activity [1] [%],EC50 [1] [pM],"Purity from the reversed phase chromatography-214 nm, 0 d [2]","Purity from the reversed phase chromatography-214 nm, 7 d [2]","Purity from the reversed phase chromatography-214 nm, 28 d [2]",Change (7 d − 0 d) [2],Change (28 d − 0 d) [2],"EC50 (luciferase assay, amylin receptor/CRE-luc CHO cells) [3] [pM]",Relative activity (the EC50 ratio of Cagrilintide to the compound) [3] [%]
CC[C@H](C)[C@H](NC(=O)[C@@H]1CCCN1C(=O)[C@H](CCCCN)NC(=O)[C@H](CC(C)C)NC(=O)[C@H](CC(N)=O)NC(=O)[C@H](CC(N)=O)NC(=O)[C@H](CO)NC(=O)[C@H](CO)NC(=O)[C@H](Cc1c[nH]cn1)NC(=O)[C@H](CCCNC(=N)N)NC(=O)[C@H](CC(C)C)NC(=O)[C@H](Cc1ccccc1)NC(=O)[C@H](CC(=O)O)NC(=O)[C@H](C)NC(=O)[C@H](CC(C)C)NC(=O)[C@H](CCCNC(=N)N)NC(=O)[C@H](CCC(N)=O)NC(=O)[C@@H](NC(=O)[C@@H](NC(=O)[C@H](C)NC(=O)[C@@H](NC(=O)[C@H](CO)NC(=O)[C@H](CC(C)C)NC(=O)[C@H](CCC(N)=O)NC(=O)[C@H](CO)NC(=O)[C@H](C)NC(=O)CC[C@H](NC(=O)CCCCCCCCCCCCCCCCCCC(=O)O)C(=O)O)[C@@H](C)O)C(C)C)[C@@H](C)O)C(=O)N[C@@H](CC(C)C)C(=O)N1CCC[C@H]1C(=O)N1CCC[C@H]1C(=O)N[C@H](C(=O)N[C@@H](CC(N)=O)C(=O)N[C@H](C(=O)NCC(=O)N[C@@H](CO)C(=O)N[C@@H](CC(N)=O)C(=O)N[C@H](C(=O)N1C[C@H](O)C[C@H]1C(N)=O)[C@@H](C)O)C(C)C)[C@@H](C)O [M7] ({C20 diacid-γGlu}-ASQLSTAVTQRLADFLRHSSNNLKPILPPTNVGSNT[Hyp]-NH2),39,66,93,91.39,91.53,−1.61,−1.47,,
CC[C@H](C)[C@H](NC(=O)[C@H](CC(=O)O)NC(=O)[C@H](CCCNC(=N)N)NC(=O)[C@H](CC(=O)O)NC(=O)[C@H](CCCNC(=N)N)NC(=O)[C@H](CC(=O)O)NC(=O)[C@@H](NC(=O)[C@H](Cc1ccccc1)NC(=O)[C@H](Cc1c[nH]cn1)NC(=O)[C@H](CCCNC(=N)N)NC(=O)[C@H](CC(C)C)NC(=O)[C@H](Cc1ccccc1)NC(=O)[C@H](CC(=O)O)NC(=O)[C@H](C)NC(=O)[C@H](CC(C)C)NC(=O)[C@H](CCCNC(=N)N)NC(=O)[C@H](CCC(N)=O)NC(=O)[C@@H](NC(=O)[C@@H](NC(=O)[C@H](C)NC(=O)[C@@H](NC(=O)[C@H](CO)NC(=O)[C@H](CC(C)C)NC(=O)[C@H](CCC(N)=O)NC(=O)[C@H](CO)NC(=O)[C@H](C)NC(=O)CC[C@H](NC(=O)CCCCCCCCCCCCCCCCCCC(=O)O)C(=O)O)[C@@H](C)O)C(C)C)[C@@H](C)O)[C@@H](C)O)C(=O)N[C@@H](CC(C)C)C(=O)N1CCC[C@H]1C(=O)N1CCC[C@H]1C(=O)N[C@H](C(=O)N[C@@H](CC(N)=O)C(=O)N[C@H](C(=O)NCC(=O)N[C@@H](CO)C(=O)N[C@@H](CC(N)=O)C(=O)N[C@H](C(=O)N1CCC[C@H]1C(N)=O)[C@@H](C)O)C(C)C)[C@@H](C)O [M8] ({C20 diacid-γGlu}-ASQLSTAVTQRLADFLRHFTDRDRDILPPTNVGSNTP-NH2),53,49,86.93,86.57,87.31,−0.36,0.38,,
CC[C@H](C)[C@H](NC(=O)[C@@H]1CCCN1C(=O)[C@H](CCCCN)NC(=O)[C@H](CC(C)C)NC(=O)[C@H](CC(N)=O)NC(=O)[C@H](CC(N)=O)NC(=O)[C@H](CO)NC(=O)[C@H](CO)NC(=O)[C@H](Cc1c[nH]cn1)NC(=O)[C@H](CCCNC(=N)N)NC(=O)[C@H](CC(C)C)NC(=O)[C@H](Cc1ccccc1)NC(=O)[C@H](CC(=O)O)NC(=O)[C@H](C)NC(=O)[C@H](CC(C)C)NC(=O)[C@H](CCCNC(=N)N)NC(=O)[C@H](CCC(N)=O)NC(=O)[C@H](CC(C)C)NC(=O)[C@@H](NC(=O)[C@H](C)NC(=O)[C@@H](NC(=O)[C@H](CO)NC(=O)[C@H](CC(C)C)NC(=O)[C@H](CCC(N)=O)NC(=O)[C@H](CO)NC(=O)[C@H](C)NC(=O)CC[C@H](NC(=O)CCCCCCCCCCCCCCCCCCC(=O)O)C(=O)O)[C@@H](C)O)C(C)C)C(=O)N[C@@H](CC(C)C)C(=O)N1CCC[C@H]1C(=O)N1CCC[C@H]1C(=O)N[C@H](C(=O)N[C@@H](CC(N)=O)C(=O)N[C@H](C(=O)NCC(=O)N[C@@H](CO)C(=O)N[C@@H](CC(N)=O)C(=O)N[C@H](C(=O)N1C[C@H](O)C[C@H]1C(N)=O)[C@@H](C)O)C(C)C)[C@@H](C)O [M9] ({C20 diacid-γGlu}-ASQLSTAVLQRLADFLRHSSNNLKPILPPTNVGSNT[Hyp]-NH2),100,26,88.15,89.62,90.99,1.47,2.84,,
B1,,,,,,,,49,103
B2,,,,,,,,64,78
